# Experiments:
# [1] = test system: purified T cells from C57BL/6 mice stimulated with bone marrow-derived BALB/c DCs; assay: Allogeneic T cell proliferation assay (3H-thymidine incorporation, IFN-γ ELISA); type: cell-based, mouse
# Experimental: Cells were co-cultured either alone (media) or in the presence of LPS (100 ng/mL), Pam3CSK4 (2 μg/mL), hyaluronan (HA) (100 μg/mL), sonicated-HA (sHA) (100 μg/mL), fibronectin (FN) (100 μg/mL), fibrinogen (Fbn) (100 μg/mL), heparan sulfate (HS) (100 μg/mL), HSP70 (5 μg/mL), HMGB1 (1 μg/mL), C12-iE-DAP (1 μg/mL), or L18-MDP (1 μg/mL) for 72 hours, and then pulsed ^3H-thymidine for 16 hours. Proliferation was determined by ^3H incorporation and results are expressed as cpm±SEM. Baseline alloreactivity is indicated by the dotted line; *p<0.05 compared with media alone. […] Results are representative of three independent experiments.
# T cell proliferation assay: DCs were generated from bone marrow as previously described. (Yang, Y. (2004) Nat. Immunol. 5:508-15). CD3^+ T cells were isolated from B6 mice using a CD3 negative selection magnetic bead kit (Invitrogen, Carlsbad, United States). Proliferation assays were performed as previously described. (Brennan, T. V. et al. (2008) Transplantation 85:247-55).
# Purified T cells from C57BL/6 mice were stimulated with bone marrow-derived DCs from BALB/c mice and their proliferation was measured by the incorporation of ^3H-thymidine. DAMPs tested included proteins—fibronectin (FN), fibrinogen (Fbn), heat shock protein 70 (HSP70), and high-mobility group protein B1 (HMGB1); and glucosaminoglycans—heparan sulfate (HS) and hyaluronan (HA). For comparison, two well-described PAMPs, lipopolysaccharide (LPS) and a synthetic tripalmitoylated lipopeptide (Pam3CSK4) that are ligands of the TLR4 homodimer and the TLR1/2 heterodimer, respectively, were tested. As nucleotide-binding domain, leucine-rich repeat containing receptors (NLRB) are another family of innate immune receptors, ligands of NLR1 (C12-iE-DAP) and NLR2 (L18-MDP) were further tested.
# Next, to investigate whether HS enhanced proliferation of allogeneic T cells was due to the stimulation of TLRs on DCs or T cells, because MyD88 is a common adaptor protein involved in the signal transduction of all TLRs with the exception of TLR3^9, HS was tested against DCs or T cells that were deficient for MyD88. For this purpose, T cells from WT or MyD88^−/− C57BL/6 mice were stimulated with DCs from WT or MyD88^−/− BALB/c mice in an allogeneic proliferation assay in the presence of HS, LPS, Pam3CSK4, or media alone.
# HS has been shown as a TLR4 ligand, (Johnson, G. B. et al., (2002) J. Immunol. 168:5233-39; Johnson, G. B., Brunn, G. J. & Platt, J. L. (2004) J. Immunol. 172:20-24). To determine whether the absence of TLR4 expression on stimulating DCs would reduce HS-induced alloreactive T cell proliferation equivalent to MyD88 deficiency, purified T cells from C57BL/6 mice were co-cultured with irradiated WT, TLR4^−/−, and MyD88^−/− BALB/c DCs and proliferation was measured by the incorporation of ^3H-thymidine.
# Cytokine analysis: Cell culture supernatants were obtained from DC cultures or T cell proliferation assays and assayed for IL-6, IL-12 and IFN-γ by ELISA (BD Biosciences) according to the manufacturer's standard protocols. HEK 293 supernatants were tested for human IL-8 by ELISA (BioLegend, San Diego, United States).
# Allogenic heart transplants were performed between C57BL/6 donors and (BALB/c x DBA.1)F1 recipients. Serum HS was measured by ELISA Immunohistologic staining for HS and CD3 was performed on heart tx tissue. Bone marrow derived dendritic cells (DCs) and purified T cells from WT-, MyD88- or TLR4-deficient mice were used in MLR assays to test for proliferation and cytokine production in response to HS. CD40 and CD80 expression on stimulated DCs was measured by FACS. T cell proliferation was determined by ^3H-thymidine incorporation and CFSE dye dilution assay. HEK293 NF-kB-luciferase reporter cell lines stably expressing CD14, MD2, and TLR4 or TLR2 were used in assays of HS activity.
# BALB/c DCs = assay: DC maturation: surface expression of CD40 and CD80 by FACS; type: cell-based, mouse; settings: 24 h; HS 100 μg/mL, Pam3CSK4 2 μg/mL
# Experimental: FIG. 3A is a graph showing WT, TLR4^−/−, or MyD88^−/− BALB/c DCs (2×10^5/well) were stimulated with LPS (100 ng/mL), HS (100 μg/mL), or Pam3CSK4 (2 μg/mL), or left unstimulated (media) for 24 hours, and measured for surface expression of co-stimulatory molecules CD40 and CD80 by FACS analysis. FIGS. 3B and 3C are graphs showing WT, MyD88^−/−, and TLR4^−/− BALB/c cultured DCs were co-cultured with media alone, LPS, HS, or Pam3CSK4 as in (A) and culture supernatants were tested for IL-6 (B) and IL-12 (C) by ELISA. Data are representative of three independent experiments; *p<0.05 compared with media alone.
# To investigate how activation of DCs by HS promoted the alloreactive T cell response, an as DC maturation and production of pro-inflammatory cytokines are key initial events in triggering adaptive immune responses, the ability of HS to upregulate DC expression of costimulatory molecules, CD40 and CD80, and pro-inflammatory cytokines, IL-6 and IL-12 was tested.
# Antibodies and flow cytometry: Anti-CD40 (HM40-3), anti-CD80 (16-10A1), anti-Thy1.1 (OX-7), anti-Ly5.1 (A20) anti-IFN-γ (XMG1.2), rat IgG1 isotype (R3-34), and the BrdU Flow Kit (FITC-labeled) were from BD Biosciences (San Jose, Calif., USA). Intracellular IFN-γ staining was performed as previously described. (Brennan, T. V. et al. (2008) Transplantation 85:247-55). For in vivo BrdU labeling, mice were injected with 50 μg BrdU/gm i.p. 1 hour prior to analysis. Collection of flow cytometric data was acquired using a FACSCanto (BD Biosciences), and events were analyzed using FloJo software (Tree Star, Inc., Ashland, United States).
# [2] = TLR4−/− BALB/c DCs as stimulators
substance,measurement,setting,value
heparan sulfate [HS],IFNg production in MLR assays,[1],increased
same,alloreactive T cell proliferation with MyD88−/− DCs as stimulators,[1]; MyD88−/− BALB/c DCs,abolished the enhanced proliferation
same,IFN-γ production with TLR4−/− DCs,[1]; [2],not able to increase
same,proliferation of allogeneic T cells above baseline with TLR4−/− DCs,[1]; [2],not able to increase
same,alloreactive T cell proliferation compared to media alone,"[1]; WT BALB/c DCs + C57BL/6 T cells, 72 h then 3H-thymidine 16 h, HS 100 μg/mL, HSP70 5 μg/mL, C12-iE-DAP 1 μg/mL, L18-MDP 1 μg/mL",significantly increased
same,upregulation of CD40 and CD80 on WT DCs,BALB/c DCs,upregulation
